Experimental findings from PubChem BioAssay AID328 (DTP/NCI, 2004) are described below.

Several values for one entry are separate records, joined by “and”; a condition that tells them apart may be missing. Identical values can stand only once. Toxic doses and inconclusive results are not listed.

This assay relates to BDF1 mice, P388 leukemia ip, median survival T/C. The assay can be described thus: NCI In Vivo Anticancer Drug Screen. Data for tumor model P388 Leukemia (intraperitoneal) in B6D2F1 (BDF1) mice. The conditions noted are these: endpoint: median survival time, higher = longer survival. In outline:
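Survival ratio, drug arm over vehicle arm, in mice with a transplanted tumour.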

[1] abbreviates: dose: 50.0 mg/kg/injection, schedule: Q04DX003 (ip), vehicle: saline.
Where [2] appears, read: dose: 100.0 mg/kg/injection, schedule: Q01DX009 (ip), vehicle: saline with Tween-80.
Where [3] appears, read: dose: 200.0 mg/kg/injection, schedule: Q01DX009 (ip), vehicle: saline with Tween-80.
Setting [4] is: dose: 50.0 mg/kg/injection, schedule: Q01DX009 (ip), vehicle: saline with Tween-80.

In the case of `Nc1ccn(C2OC(COP(=O)(O)O)C(O)C2O)c(=O)n1` (stereo not drawn), the T/C was 113 % of control (dose: 4.2 mg/kg/injection, schedule: Q04DX003 (ip), vehicle: saline with Tween-80); 113 % of control (dose: 6.3 mg/kg/injection, schedule: Q04DX003 (ip), vehicle: saline with Tween-80); 150 % of control (dose: 9.6 mg/kg/injection, schedule: Q04DX003 (ip), vehicle: saline); 159 % of control under setting [1]; 172 % of control (dose: 75.0 mg/kg/injection, schedule: Q04DX003 (ip), vehicle: saline); 187 % of control under setting [2]. Also, the T/C is 172 % of control (dose: 115.0 mg/kg/injection, schedule: Q04DX003 (ip), vehicle: saline with Tween-80); 168 % of control (dose: 175.0 mg/kg/injection, schedule: Q04DX003 (ip), vehicle: saline with Tween-80); 112 % of control under setting [3]; 181 % of control (dose: 264.0 mg/kg/injection, schedule: Q04DX003 (ip), vehicle: saline with Tween-80); 154 % of control (dose: 400.0 mg/kg/injection, schedule: Q04DX003 (ip), vehicle: saline with Tween-80); 177 % of control (dose: 600.0 mg/kg/injection, schedule: Q04DX003 (ip), vehicle: saline with Tween-80).

For `Nc1nc(SCc2ccccc2)c2[nH]cnc2n1`, the T/C (dose: 8.0 mg/kg/injection, schedule: Q01DX010 (ip), vehicle: saline) was 90 % of control and 100 % of control; the T/C (dose: 16.0 mg/kg/injection, schedule: Q01DX010 (ip), vehicle: saline) was 90 % of control and 105 % of control; the T/C (dose: 32.0 mg/kg/injection, schedule: Q01DX010 (ip), vehicle: saline) is 90 % of control and 110 % of control; the T/C (dose: 64.0 mg/kg/injection, schedule: Q01DX010 (ip), vehicle: saline) was 104 % of control and 120 % of control.

`CC(C)(CBr)C(=O)N1CCN(C(=O)C(C)(C)CBr)CC1`: the T/C was 150 % of control (dose: 20.0 mg/kg/injection, schedule: Q04DX003 (ip), vehicle: Klucel (hydroxypropylcellulose) (HPC)); 159 % of control and 163 % of control (dose: 30.0 mg/kg/injection, schedule: Q04DX003 (ip), vehicle: Klucel (hydroxypropylcellulose) (HPC)); 163 % of control and 165 % of control (dose: 44.0 mg/kg/injection, schedule: Q04DX003 (ip), vehicle: Klucel (hydroxypropylcellulose) (HPC)); 195 % of control and 200 % of control (dose: 100.0 mg/kg/injection, schedule: Q04DX003 (ip), vehicle: Klucel (hydroxypropylcellulose) (HPC)); 175 % of control (dose: 150.0 mg/kg/injection, schedule: Q04DX003 (ip), vehicle: Klucel (hydroxypropylcellulose) (HPC)).

On to `CCCCCCCCCCCCCCCCOc1ccc(C(C)(C)C)cc1`, for which the T/C was 100 % of control (dose: 37.5 mg/kg/injection, schedule: Q01DX001 (ip), vehicle: saline sonified); 100 % of control (dose: 75.0 mg/kg/injection, schedule: Q01DX001 (ip), vehicle: saline sonified); 100 % of control (dose: 150.0 mg/kg/injection, schedule: Q01DX001 (ip), vehicle: saline sonified).

As for `S=c1sc(-c2ccccc2)c[se]1`, the T/C reads like this: (dose: 25.0 mg/kg/injection, schedule: Q01DX009 (ip), vehicle: saline + Tween-80 + alcohol) 107 % of control; (dose: 50.0 mg/kg/injection, schedule: Q01DX009 (ip), vehicle: saline + Tween-80 + alcohol) 105 % of control.

As for `Oc1ccc(C(O)(c2ccccc2)c2ccc(O)c3ccccc23)c2ccccc12`, the T/C is 95 % of control under setting [2]; 103 % of control under setting [3]; 110 % of control (dose: 400.0 mg/kg/injection, schedule: Q01DX009 (ip), vehicle: saline with Tween-80).

On to `CC12CCC(Cl)CC1=CCC1C2CCC2(C)C1CCCN2CCCl` (stereo not drawn), for which the T/C is, setting by setting: (dose: 12.5 mg/kg/injection, schedule: Q01DX001 (ip), vehicle: saline with Tween-80) 105 % of control; (dose: 12.5 mg/kg/injection, schedule: Q01DX001 (ip), vehicle: saline) 102 % of control; (dose: 25.0 mg/kg/injection, schedule: Q01DX001 (ip), vehicle: saline with Tween-80) 113 % of control; (dose: 25.0 mg/kg/injection, schedule: Q01DX001 (ip), vehicle: saline) 117 % of control.

Consider `CCN(CC)CCCC(C)Nc1c2ccc(Cl)cc2nc2cc(Cl)ccc12` (stereo not drawn), for which, where the note is “dose: 12.5 mg/kg/injection, schedule: Q01DX009 (ip), vehicle: Klucel (hydroxypropylcellulose) (HPC)”, the T/C was 120 % of control.

As to `O=C1CC(c2ccccc2)=NO1`, the T/C runs as follows: (dose: 25.0 mg/kg/injection, schedule: Q01DX009 (ip), vehicle: saline with Tween-80) 96 % of control; under setting [4], 91 % of control; under setting [2], 101 % of control; under setting [3], 107 % of control.

For the compound `O=S1ON=C(C2CCC(C3=NOS(=O)O3)C2)O1` (stereo not drawn), the T/C is 97 % of control (dose: 25.0 mg/kg/injection, schedule: Q01DX005 (ip), vehicle: saline with Tween-80); 104 % of control (dose: 50.0 mg/kg/injection, schedule: Q01DX005 (ip), vehicle: saline with Tween-80); 114 % of control (dose: 100.0 mg/kg/injection, schedule: Q01DX005 (ip), vehicle: saline with Tween-80).

In the case of `O=c1[nH]n(-c2ccccc2)c(=O)cc1Cl`, the T/C is 95 % of control under setting [4], 87 % of control under setting [2] and 90 % of control under setting [3].

With `C/C(=N\[N+](C)(C)C)c1ccccc1`, the T/C was 95 % of control under setting [1] and 109 % of control (dose: 100.0 mg/kg/injection, schedule: Q04DX003 (ip), vehicle: saline).

`CCOC(=O)/C(O)=C(\C=N\C(N)=O)C(=O)OCC`: the T/C runs as follows: (dose: 50.0 mg/kg/injection, schedule: Q04DX003 (ip), vehicle: saline sonified) 100 % of control; (dose: 100.0 mg/kg/injection, schedule: Q04DX003 (ip), vehicle: saline sonified) 105 % of control; (dose: 200.0 mg/kg/injection, schedule: Q04DX003 (ip), vehicle: saline sonified) 110 % of control.

For `c1ccc(CN(CCNc2ccccc2)c2ccccc2)cc1`, the T/C by setting is: (dose: 0.78 mg/kg/injection, schedule: Q01DX009 (ip), vehicle: water) 106 % of control; (dose: 1.56 mg/kg/injection, schedule: Q01DX009 (ip), vehicle: water) 104 % of control; (dose: 3.12 mg/kg/injection, schedule: Q01DX009 (ip), vehicle: water) 108 % of control; (dose: 6.25 mg/kg/injection, schedule: Q01DX009 (ip), vehicle: water) 104 % of control; (dose: 12.5 mg/kg/injection, schedule: Q01DX009 (ip), vehicle: water) 106 % of control; (dose: 25.0 mg/kg/injection, schedule: Q01DX009 (ip), vehicle: water) 92 % of control. For the same compound, the T/C (dose: 50.0 mg/kg/injection, schedule: Q01DX009 (ip), vehicle: water) is 92 % of control; the T/C (dose: 50.0 mg/kg/injection, schedule: Q04DX003 (ip), vehicle: water) is 100 % of control; the T/C (dose: 100.0 mg/kg/injection, schedule: Q01DX009 (ip), vehicle: water) is 115 % of control; the T/C (dose: 100.0 mg/kg/injection, schedule: Q04DX003 (ip), vehicle: water) was 98 % of control; the T/C (dose: 200.0 mg/kg/injection, schedule: Q01DX009 (ip), vehicle: water) is 97 % of control; the T/C (dose: 200.0 mg/kg/injection, schedule: Q04DX003 (ip), vehicle: water) is 103 % of control.

Consider `O=C(O)c1ccc(N=NSc2ncnc3nc[nH]c23)cc1O`, for which the T/C was 115 % of control (dose: 1.3 mg/kg/injection, schedule: Q01DX009 (ip), vehicle: saline with Tween-80); 153 % of control (dose: 3.0 mg/kg/injection, schedule: Q01DX009 (ip), vehicle: saline with Tween-80); 150 % of control (dose: 4.0 mg/kg/injection, schedule: Q01DX009 (ip), vehicle: saline with Tween-80); 119 % of control and 123 % of control (dose: 6.0 mg/kg/injection, schedule: Q01DX009 (ip), vehicle: saline with Tween-80); 123 % of control (dose: 9.0 mg/kg/injection, schedule: Q01DX009 (ip), vehicle: saline with Tween-80); 96 % of control (dose: 12.0 mg/kg/injection, schedule: Q01DX009 (ip), vehicle: saline with Tween-80). Also, the T/C (dose: 14.5 mg/kg/injection, schedule: Q04DX003 (ip), vehicle: saline with Tween-80) is 122 % of control; the T/C (dose: 22.0 mg/kg/injection, schedule: Q04DX003 (ip), vehicle: saline with Tween-80) is 122 % of control; the T/C (dose: 25.0 mg/kg/injection, schedule: Q04DX003 (ip), vehicle: saline with Tween-80) was 161 % of control; the T/C (dose: 33.0 mg/kg/injection, schedule: Q04DX003 (ip), vehicle: saline with Tween-80) was 118 % of control and 119 % of control; the T/C (dose: 50.0 mg/kg/injection, schedule: Q04DX003 (ip), vehicle: saline with Tween-80) is 177 % of control; the T/C (dose: 75.0 mg/kg/injection, schedule: Q04DX003 (ip), vehicle: saline with Tween-80) was 119 % of control.
